Test system: not listed separately
Experiment: (§1) Cytotoxicity against African green monkey Vero E6 cells incubated for 48 hrs by Neutral Red method
Assay type: toxicity, cell-based, Vero C1008
Conditions: chlorocebus sabaeus, Vero E6 cells
Work on CCn1ccc(-c2cc(-c3cnn(C)c3)cc([C@@H](C)NC(=O)c3ccccc3CCC(=O)NNC(C)=O)c2)n1 yielded a CC50 at 48 h of over 250 µM.
Compound CCn1ccc(-c2cc(-c3cnn(C)c3)cc([C@@H](C)NC(=O)c3ccccc3CCC(=O)NNC(=O)/C=C/C(=O)N3CC(C)(C)C3)c2)n1 has a CC50 at 48 h of over 250 µM.
Work on CCn1ccc(-c2cc(-c3cnn(C)c3)cc([C@@H](C)NC(=O)c3ccccc3CCC(=O)NNC(=O)/C=C/CN(C)C)c2)n1 yielded a CC50 at 48 h of over 250 µM.
Compound C#CCNC(=O)CCc1ccccc1C(=O)N[C@H](C)c1cc(-c2cnn(C)c2)cc(-c2ccn(CC)n2)c1 has a CC50 at 48 h of 256 µM.
CCn1ccc(-c2cc(-c3cnn(C)c3)cc([C@@H](C)NC(=O)c3ccccc3CCC(=O)NNC(=O)C(Cl)Cl)c2)n1 showed a CC50 at 48 h of over 250 µM.
CCn1ccc(-c2cc(-c3cnn(C)c3)cc(C3(NC(=O)c4ccccc4CNC(=O)CNC(=O)/C=C/C(=O)N4CC(F)(F)C4)CC3)c2)n1 gave a CC50 at 48 h of over 250 µM.
In the case of CCn1ccc(-c2cc(-c3cnn(C)c3)cc([C@@H](C)NC(=O)c3ccccc3CNC(=O)CNC(=O)/C=C/C(=O)N3CC(F)(F)C3)c2)n1, the CC50 at 48 h is reported as over 250 µM.

Test system: Vero C1008
Experiment: as §1
Assay type: toxicity, cell-based
Conditions: chlorocebus sabaeus, vero c1008, 48 h
For CCn1ccc(-c2cc(-c3cnn(C)c3)cc([C@@H](C)NC(=O)c3ccccc3CCC(=O)NNC(=O)CCl)c2)n1, the CC50 was over 250 µM.
For C=CS(=O)(=O)NNC(=O)CCc1ccccc1C(=O)N[C@H](C)c1cc(-c2cnn(C)c2)cc(-c2ccn(CC)n2)c1, the CC50 was 31 µM.

Test system: not listed separately
Experiment: AUClast in C57BL/6J mouse at 50 mg/kg, ip measured 5 hrs by LC/MS/MS analysis
Assay type: ADME, organism-based
Conditions: in vivo
Work on CCn1ccc(-c2cc(-c3cnn(C)c3)cc([C@@H](C)NC(=O)c3ccccc3CCC(=O)NNC(=O)/C=C/C(=O)N3CC(C)(C)C3)c2)n1 yielded an AUClast of 2513 ng·h/mL.

Test system: not listed separately
Experiment: Cmax in C57BL/6J mouse at 50 mg/kg, po measured 5 hrs by LC/MS/MS analysis
Assay type: ADME, organism-based
Conditions: in vivo
CCn1ccc(-c2cc(-c3cnn(C)c3)cc([C@@H](C)NC(=O)c3ccccc3CCC(=O)NNC(=O)/C=C/C(=O)N3CC(C)(C)C3)c2)n1 gave a Cmax of under 10 ng/mL.

Biological target: Replicase polyprotein 1ab (Severe acute respiratory syndrome coronavirus 2, UniProt P0DTD1)
Experiment: Inhibition of SARS-CoV-2 PL protease preincubated for 30 mins followed by substrate addition measured after 3 hrs
Conditions: not given
CCn1ccc(-c2cc(-c3cnn(C)c3)cc([C@@H](C)NC(=O)c3ccccc3CCC(=O)NNC(=O)CCl)c2)n1 showed an IC50 of 0.3 µM.
C=CS(=O)(=O)NNC(=O)CCc1ccccc1C(=O)N[C@H](C)c1cc(-c2cnn(C)c2)cc(-c2ccn(CC)n2)c1 gave an IC50 of 0.3 µM.
CCOC(=O)/C=C/C(=O)NNC(=O)CCc1ccccc1C(=O)N[C@H](C)c1cc(-c2cnn(C)c2)cc(-c2ccn(CC)n2)c1 showed an IC50 of 0.1 µM.
In the case of CCn1ccc(-c2cc(-c3cnn(C)c3)cc([C@@H](C)NC(=O)c3ccccc3CCC(=O)NNC(=O)/C=C/CN(C)C)c2)n1, the IC50 is reported as over 5 µM.
Work on C#CCNC(=O)CCc1ccccc1C(=O)N[C@H](C)c1cc(-c2cnn(C)c2)cc(-c2ccn(CC)n2)c1 yielded an IC50 of 5 µM.
With CCn1ccc(-c2cc(-c3cnn(C)c3)cc([C@@H](C)NC(=O)c3ccccc3CCC(=O)NNC(=O)C(Cl)Cl)c2)n1 the IC50 was 2.2 µM.
CCn1ccc(-c2cc(-c3cnn(C)c3)cc([C@@H](C)NC(=O)c3ccccc3CCC(=O)NNC(=O)/C=C/C(=O)N3CC(C(F)(F)F)C3)c2)n1 gave an IC50 of 0.1 µM.
CCn1ccc(-c2cc(-c3cnn(C)c3)cc(C3(NC(=O)c4ccccc4CNC(=O)CNC(=O)/C=C/C(=O)N4CC(F)(F)C4)CC3)c2)n1 gave an IC50 of 1.6 µM.
For CCn1ccc(-c2cc(-c3cnn(C)c3)cc([C@@H](C)NC(=O)c3ccccc3CNC(=O)CNC(=O)/C=C/C(=O)N3CC(F)(F)C3)c2)n1, the IC50 was 0.5 µM.

Test system: not listed separately
Experiment: Metabolic stability in mouse liver microsomes assessed as half life at 1 uM incubated for 60 mins by LC/MS/MS analysis
Assay type: ADME, Microsome
Conditions: liver microsomes
Work on CCn1ccc(-c2cc(-c3cnn(C)c3)cc([C@@H](C)NC(=O)c3ccccc3CCC(=O)NNC(=O)/C=C/C(=O)N3CC(C)(C)C3)c2)n1 yielded a half-life at 1 µM of 1.4 h.

Test system: SARS-CoV-2
Experiment: Antiviral activity against wild-type SARS-CoV-2 WA1 infected in human Caco-2 cells expressing hTMPRSS/hACE2 incubated for 48 hrs in presence of CP-100356 by crystal violet staining based analysis
Assay type: functional, organism-based
Conditions: Severe acute respiratory syndrome coronavirus 2, WA1, Caco-2, 48 h
CC(C)(C)[C@H](NC(=O)C(F)(F)F)C(=O)N1C[C@H]2[C@@H]([C@H]1C(=O)N[C@H](C#N)C[C@@H]1CCNC1=O)C2(C)C showed an EC50 of 0.0339 µM.

Test system: SARS-CoV-2
Experiment: microbe, parasite or virus in culture
Assay type: functional, organism-based
Conditions: Severe acute respiratory syndrome coronavirus 2, Caco-2, 24 h
For CCn1ccc(-c2cc(-c3cnn(C)c3)cc([C@@H](C)NC(=O)c3cc(OCCN(C)C)ccc3C)c2)n1, the EC50 was 0.42 µM.

Test system: SARS-CoV-2
Experiment: Antiviral activity against SARS-CoV-2 JN.1 infected in human Caco-2 cells expressing hTMPRSS/hACE2 incubated for 48 hrs in presence of CP-100356 by crystal violet staining based analysis
Assay type: functional, organism-based
Conditions: Severe acute respiratory syndrome coronavirus 2, JN.1, Caco-2, 48 h
With CC(C)(C)[C@H](NC(=O)C(F)(F)F)C(=O)N1C[C@H]2[C@@H]([C@H]1C(=O)N[C@H](C#N)C[C@@H]1CCNC1=O)C2(C)C the EC50 was 0.096 µM.

Test system: not listed separately
Experiment: Cmax in C57BL/6J mouse at 50 mg/kg, ip measured 0.5 hrs by LC/MS/MS analysis
Assay type: ADME, organism-based
Conditions: in vivo
CCn1ccc(-c2cc(-c3cnn(C)c3)cc([C@@H](C)NC(=O)c3ccccc3CCC(=O)NNC(=O)/C=C/C(=O)N3CC(C)(C)C3)c2)n1 showed a Cmax of 995 ng/mL.

Test system: SARS-CoV-2
Experiment: Selectivity ratio of EC50 for SARS-CoV-2 XBB1.16 infected in human Caco-2 cells expressing hTMPRSS/hACE2 to EC50 for wild-type SARS-CoV-2 WA1 infected in human Caco-2 cells expressing hTMPRSS/hACE2
Assay type: functional
Conditions: not given
With CC(C)(C)[C@H](NC(=O)C(F)(F)F)C(=O)N1C[C@H]2[C@@H]([C@H]1C(=O)N[C@H](C#N)C[C@@H]1CCNC1=O)C2(C)C the “Ratio EC50” value was 1.1.

Test system: SARS-CoV-2
Experiment: Antiviral activity against SARS-CoV-2 XBB1.16 infected in human Caco-2 cells expressing hTMPRSS/hACE2 incubated for 48 hrs in presence of CP-100356 by crystal violet staining based analysis
Assay type: functional, organism-based
Conditions: Severe acute respiratory syndrome coronavirus 2, XBB1.16, Caco-2, 48 h
CC(C)(C)[C@H](NC(=O)C(F)(F)F)C(=O)N1C[C@H]2[C@@H]([C@H]1C(=O)N[C@H](C#N)C[C@@H]1CCNC1=O)C2(C)C gave an EC50 of 0.0371 µM.

Test system: SARS-CoV-2
Experiment: Selectivity ratio of EC50 for SARS-CoV-2 JN.1 infected in human Caco-2 cells expressing hTMPRSS/hACE2 to EC50 for wild-type SARS-CoV-2 WA1 infected in human Caco-2 cells expressing hTMPRSS/hACE2
Assay type: functional
Conditions: not given
In the case of CC(C)(C)[C@H](NC(=O)C(F)(F)F)C(=O)N1C[C@H]2[C@@H]([C@H]1C(=O)N[C@H](C#N)C[C@@H]1CCNC1=O)C2(C)C, the “Ratio EC50” value is reported as 2.8.
